9 compounds from PubChem BioAssay (NCI) can be followed below.

Some test systems named below: HT29 colon; NCI-H522 lung; HL-60(TB) leukemia; SK-MEL-2 melanoma; MDA-MB-435; OVCAR-5 ovarian; SK-MEL-5 melanoma; NCI-H226 lung; 786-0 renal; A549 NSCLC.
Common to all, as to assay: inhibition of tumour cell growth, NCI panel, 48 h

“And” between values parts separate entries of the source, which are not always exact repeats. Identical values can stand only once.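 Compound exposure: 48 hours, 5 concentrations, 96-well plates. The concentration for 50% growth inhibition is given as GI50. TGI marks complete inhibition of growth.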

As to `CCCCCCCCCCCCCCCCSS(C)(=O)=O`, the TGI in the assay with HT29 colon was above 69.6 µM; with NCI-H522 lung, 11 µM; with HL-60(TB) leukemia it was 11.6 µM; in the assay on SK-MEL-2 melanoma, above 42.4 µM; in the assay with MDA-MB-435, above 100 µM; in the assay with OVCAR-5 ovarian, above 100 µM. Besides, the TGI in the assay on SK-MEL-5 melanoma is 59 µM; with NCI-H226 lung, above 35.3 µM; with 786-0 renal it was 27 µM; in the assay on A549 NSCLC, above 80.3 µM.
As to `Nc1nc2ccccc2c2[nH]c3ccccc3c12`, the GI50 was 0.509 µM in the assay on HT29 colon; 0.901 µM with NCI-H522 lung; 1.98 µM with HL-60(TB) leukemia; 1.54 µM in the assay with SK-MEL-2 melanoma; 0.938 µM in the assay on MDA-MB-435; 1.84 µM in the assay with OVCAR-5 ovarian. The GI50 in the assay on SK-MEL-5 melanoma was 1.64 µM; in the assay with NCI-H226 lung, 9.74 µM; in the assay with 786-0 renal, 1.12 µM; with A549 NSCLC, 1.09 µM. Also, the TGI with HT29 colon worked out at 1.93 µM; in the assay with NCI-H522 lung, 2.14 µM; with HL-60(TB) leukemia, 5.73 µM; in the assay on SK-MEL-2 melanoma it was 2.88 µM; with MDA-MB-435, 3.16 µM; in the assay on OVCAR-5 ovarian, 4.11 µM. Further, the TGI with SK-MEL-5 melanoma amounted to 3.01 µM; in the assay with NCI-H226 lung, 37.2 µM; in the assay with 786-0 renal, 2.61 µM; with A549 NSCLC it was 2.37 µM.
With `C=C(C)[C@@H]1CC[C@]2(C(=O)N3CCN(C)CC3)CC[C@]3(C)[C@H](CC[C@@H]4[C@@]5(C)C/C(=C/c6ccncc6)[C@H](O)C(C)(C)[C@@H]5CC[C@]43C)[C@@H]12`, the GI50 in the assay on HT29 colon was 1.88 µM; in the assay on NCI-H522 lung, 5.24 µM; in the assay with HL-60(TB) leukemia it was 2.29 µM; in the assay on SK-MEL-2 melanoma, 8.41 µM; with MDA-MB-435, 8.29 µM; with OVCAR-5 ovarian, 6.04 µM. For the same compound, the GI50 in the assay with SK-MEL-5 melanoma was 5.98 µM; with NCI-H226 lung it was 7.01 µM; with 786-0 renal, 2.71 µM; in the assay with A549 NSCLC it was 5.2 µM. For the same compound, the TGI in the assay with HT29 colon was 11.2 µM; in the assay on NCI-H522 lung, 25 µM; in the assay with HL-60(TB) leukemia it was 5.58 µM; with SK-MEL-2 melanoma, 26.2 µM; in the assay on MDA-MB-435, 33.9 µM; with OVCAR-5 ovarian, 26.8 µM. For the same compound, the TGI with SK-MEL-5 melanoma was 18.5 µM; in the assay on NCI-H226 lung it was 28.9 µM; in the assay with 786-0 renal it was 13.3 µM; in the assay with A549 NSCLC, above 100 µM.
With `COc1ccc(-c2cc(=O)c3c(OC)c(O)c(OC)cc3o2)cc1`, the TGI in the assay with HT29 colon, in the assay on NCI-H522 lung, in the assay with HL-60(TB) leukemia, with SK-MEL-2 melanoma, in the assay with MDA-MB-435 and in the assay with OVCAR-5 ovarian was above 100 µM throughout. The TGI with SK-MEL-5 melanoma is 94.9 µM; in the assay with NCI-H226 lung it was above 100 µM; with 786-0 renal it was above 100 µM; with A549 NSCLC, above 100 µM.
Regarding `CS(=O)(=O)OCCCCOS(C)(=O)=O`, the GI50 with HT29 colon was above 846 µM; in the assay with NCI-H522 lung, 466 µM; in the assay on HL-60(TB) leukemia, 212 µM; in the assay on SK-MEL-2 melanoma it was above 1000 µM; in the assay on MDA-MB-435, above 250 µM; with OVCAR-5 ovarian it was above 698 µM. Further, the GI50 in the assay on SK-MEL-5 melanoma is 520 µM; in the assay on NCI-H226 lung, above 966 µM; in the assay on 786-0 renal, 539 µM; in the assay on A549 NSCLC, 538 µM. Besides, the TGI in the assay with HT29 colon is 250 µM and > 1000 µM; in the assay on NCI-H522 lung, 250 µM and > 1000 µM; in the assay on HL-60(TB) leukemia, 224 µM and 858 µM; in the assay on SK-MEL-2 melanoma, 250 µM and > 1000 µM; in the assay with MDA-MB-435, above 1000 µM; with OVCAR-5 ovarian, above 1000 µM. For the same compound, the TGI with SK-MEL-5 melanoma was 242 µM and > 1000 µM; in the assay on NCI-H226 lung, 250 µM and > 1000 µM; in the assay with 786-0 renal, 250 µM and > 1000 µM; with A549 NSCLC, 243 µM and > 1000 µM.
As to `O=S1(=O)OCc2ccccc21`, the TGI with HT29 colon, with NCI-H522 lung, with HL-60(TB) leukemia, with SK-MEL-2 melanoma, in the assay on MDA-MB-435 and in the assay with OVCAR-5 ovarian was above 100 µM each time. Besides, the TGI with SK-MEL-5 melanoma, with NCI-H226 lung, with 786-0 renal and with A549 NSCLC was above 100 µM each time.
As for `C/C(=N\NC(=O)c1cccc(S(=O)(=O)N2CCN(C)CC2)c1)c1cc(Cl)ccc1O`, the GI50 in the assay on HT29 colon is 0.397 µM; in the assay on NCI-H522 lung, 1.26 µM; in the assay on HL-60(TB) leukemia, 0.717 µM; in the assay on SK-MEL-2 melanoma, 3.46 µM; with MDA-MB-435 it was 2.74 µM; with OVCAR-5 ovarian, 1.86 µM. In addition, the GI50 in the assay with SK-MEL-5 melanoma is 1.29 µM; with NCI-H226 lung it was 0.713 µM; in the assay with 786-0 renal it was 0.992 µM; in the assay on A549 NSCLC, 0.761 µM. Moreover, the TGI in the assay with HT29 colon was 20.1 µM; in the assay on NCI-H522 lung, above 72.7 µM; in the assay with HL-60(TB) leukemia, 17.1 µM; in the assay with SK-MEL-2 melanoma, above 72.6 µM; in the assay with MDA-MB-435 it was above 100 µM; in the assay on OVCAR-5 ovarian it was above 100 µM. In addition, the TGI in the assay with SK-MEL-5 melanoma was 3.87 µM; with NCI-H226 lung, 8.42 µM; with 786-0 renal it was above 100 µM; in the assay on A549 NSCLC, above 100 µM.
As to `OCCNC(=S)Nc1ccc(-c2nc(N3C[C@H]4CC[C@@H](C3)O4)c3cccn3n2)cc1`, the GI50 with HT29 colon was 0.117 µM; in the assay on NCI-H522 lung it was 0.029 µM; in the assay with HL-60(TB) leukemia it was 1.22 µM; with SK-MEL-2 melanoma it was 0.0637 µM; with MDA-MB-435 it was 0.0597 µM; with OVCAR-5 ovarian, 0.0379 µM. For the same compound, the GI50 is 0.0668 µM with SK-MEL-5 melanoma, 0.0305 µM with NCI-H226 lung, 0.0677 µM in the assay with 786-0 renal and 0.0856 µM with A549 NSCLC. In addition, the TGI in the assay with HT29 colon is 22.5 µM; in the assay with NCI-H522 lung, 3.37 µM; in the assay with HL-60(TB) leukemia, above 32.5 µM; with SK-MEL-2 melanoma it was 0.579 µM; with MDA-MB-435, 2.86 µM; in the assay on OVCAR-5 ovarian it was 15.3 µM. For the same compound, the TGI with SK-MEL-5 melanoma was 0.642 µM; in the assay on NCI-H226 lung, 0.714 µM; with 786-0 renal it was 12.8 µM; in the assay on A549 NSCLC it was 2.75 µM.
On to `COc1ccc(/C=C(/C(=O)N2CCN(c3ccc(C)cc3)CC2)c2cc(OC)c(OC)c(OC)c2)cc1N`, for which the GI50 with HT29 colon is 0.339 µM; with NCI-H522 lung it was 0.168 µM; in the assay with HL-60(TB) leukemia, 0.255 µM; with SK-MEL-2 melanoma, 0.64 µM; in the assay with MDA-MB-435, 0.108 µM; in the assay on OVCAR-5 ovarian it was 0.715 µM. The GI50 in the assay on SK-MEL-5 melanoma was 0.228 µM; in the assay on NCI-H226 lung, 0.352 µM; in the assay with 786-0 renal it was 0.32 µM; in the assay with A549 NSCLC, 0.426 µM. Also, the TGI with HT29 colon is above 39.2 µM; in the assay on NCI-H522 lung it was above 100 µM; in the assay on HL-60(TB) leukemia, 0.679 µM; in the assay with SK-MEL-2 melanoma, above 100 µM; with OVCAR-5 ovarian, above 100 µM; with SK-MEL-5 melanoma, 0.661 µM. In addition, the TGI in the assay on NCI-H226 lung, in the assay with 786-0 renal and in the assay on A549 NSCLC was above 100 µM each time.
